Experimental data: patent publication EP3298025B1, “NEW AMINO ACID SEQUENCES WITH MI[…] DERIVED FROM NAJA ATRA CARDIOTOXIN 1 (CTX-1)” (Università degli Studi di Parma, priority 2015, dated 2016)
Values joined by “and” are separate entries in the source; they are usually repeats but may differ in a detail not shown here. Identical values can stand only once. Residues, ends and D or L forms follow the SMILES beside them.

Assays:
Assay type in all cases: cell-based
E. coli ML-35pYC = experiment: membrane permeabilization assay (CENTA outer membrane, ONPG inner membrane); conditions: peptide 12.5 µg/ml; absorbance every 10 minutes for 240 minutes
Experimental: Methods: to test the bacterial membrane permeabilization caused by the peptides of the invention, E. coli ML-35pYC strain was used. This bacterial strain express ampicillin resistence, a constitutive expression of cytoplasmic β-galactosidase and is engineered with a plasmid for a periplasmic β-lactamase synthesis. Sixty microliters (60 µl) of bacterial suspension, containing E. coli ML-35pYC strain, were added to 60 µl of ONPG solution (15 mM) or to 60 µl of CENTA (1,5 mM) diluted in phosphate buffer. Subsequently 120 µl of the examined peptide were added, to obtain a final concentration of 12.5 µg/ml (NCP-2=5,4 µM, NCP-3=5.2 µM). The absorbance value was registered at […] for ONPG and at 405 nm for CENTA, every 10 minutes for 240 minutes to assess the reaction's kinetics.

[1] = system: Pseudomonas aeruginosa ATCC 27853; experiment: antimicrobial activity in presence of NaCl
Experimental: Peptides were tested in the ability to inhibit bacterial growth in liquid medium. 50 µl of peptides at a concentration […] E. coli ATCC 25922, Pseudomonas aeruginosa ATCC 27853 and Staphylococcus aureus methicillin resistant ATCC 43300. After 2 hours incubation at 37°C, bacteria were plated on solid culture medium. Bacterial cultures were cultivated without peptides as growth control.
The bacterial suspension and peptides at differing concentrations were put in contact for about 2 hours at 37°C. After this incubation, 20 µl from every well of the plate were transplanted on solid culture medium, McConkey agar for Gram-negative and Columbia agar with 5% of bovine erythrocytes for Gram-positive bacteria. The inoculum was evenly distributed on the agar medium using a single use sterile handle. After an incubation time of 24 hours at 37°C, the bacterial colonies (cfu) were counted.

[2] = system: Acinetobacter baumanii (human strain); experiment: micro-dilution in liquid medium and transplant on agar, Gram-negative bacteria; conditions: 2 hours at 37°C, transplant on agar
Experimental: (§1) For each bacterial strain 3-5 morphologically similar colonies from fresh cultures were taken and inoculated in Brain Heart Infusion broth, then incubated at 37°C in agitation at 225 r.p.m. for about 3-4 hours. Then the bacterial suspension was centrifuged at 1000 G for 20 minutes and the pellet resuspended in phosphate buffer pH 7, 10 mM. The turbidity of the bacterial suspension was measured using a spectrophotometer with absorbance of 600 nm; the range 0.08-0.13 equates to about 10^8 cfu/ml. The bacterial suspension was diluted 1:100 in phosphate buffer 10mM to obtain a bacterial concentration of about 10^6 cfu/ml. Within 30 minutes 50 µl of the suspension (10^6 cfu/ml) were inoculated in each well of the microtiter plate, to obtain a bacterial concentration of about 5x10^5 cfu/ml.
(§2) The peptides ability to inhibit the bacterial growth in liquid cultures was tested. 50 µl of each peptides solutions of about 0,2-50 µM were added in microtiter plates with 96 wells with U-shaped bottom, containing the liquid culture medium and one of these bacterial strains: E coli ATCC 25922, Pseudomonas. Aeruginosa ATCC 27853, Proteus mirabilis ATCC 14153, Burkholderia cepacia ATCC 17759, Moraxella catharralis ATCC 25238 or other wild strains of Klebsiella pneumoniae subsp. pneumoniae, Enterobacter cloacae, Acinetobacter baumanii.
(§3) After 2 hours incubation at 37°C, the bacteria were transplanted on solid medium. As a growth reference, bacterial cultures were grown in absence of peptides.
(§4) The bacterial suspension and peptides were put in contact for 2 hours at 37°C, with differing concentrations of the peptide. Then 20 µl from each well of the plate were taken and transferred on solid culture medium, McConkey agar. The inoculum was uniformly distributed on the agar medium with aid of a sterile disposable handle. After an incubation time of 24 hours at 37°C, the bacterial colonies (cfu) were counted.

[3] = system: Klebsiella pneumoniae subsp. pneumoniae (herpetological); experiment: as above; conditions: 2 hours at 37°C, transplant on agar
Experimental: as §1, §2, §3, §4

[4] = system: Moraxella catharralis ATCC 25238; experiment: as above; conditions: 2 hours at 37°C, transplant on agar
Experimental: as §1, §2, §3, §4

[5] = system: Proteus mirabilis ATCC 14153; experiment: as above; conditions: 2 hours at 37°C, transplant on agar
Experimental: as §1, §2, §3, §4

[6] = system: Pseudomonas aeruginosa ATCC 27853; experiment: as above; conditions: 2 hours at 37°C, transplant on agar
Experimental: as §1, §2, §3, §4

[7] = system: Acinetobacter baumanii from cloaca (ornithological); experiment: as above; conditions: 2 hours at 37°C, transplant on agar
Experimental: as §1, §2, §3, §4

[8] = system: Streptococcus agalactiae ATCC 13813; experiment: micro-dilution in liquid medium and transplant on solid medium, Gram-positive bacteria; conditions: 2 hours at 37°C, transplant on agar
Experimental: as §1, with “0,08-0,13” for “0.08-0.13”, “10^6 cfu/ml” for “(10^6 cfu/ml)”
(§5) The peptides ability to inhibit the bacterial growth in liquid cultures was tested. 50 µl of each peptides solutions of about 0.2-50 µM were added in microtiter plates with 96 wells with liquid culture medium and one of these bacterial strains: Staphylococcus aureus ATCC 25923, MRSA ATCC 43300, Streptococcus agalactiae ATCC 13813 and Enterococcus hirae ATCC 10541. After 2 hours of incubation at 37°C, bacterial suspensions were put on solid culture medium. Bacterial cultures were cultivated without peptides as growth control.
(§6) The bacterial suspension and differing peptides concentrations were put in contact for about 2 hours at 37°C. After this incubation, 20 µl from each well of the plate were transplanted on solid culture medium, Columbia agar with 5% of bovine erythrocytes for Gram-positive bacteria. The inoculum was evenly distributed on the agar medium with the aid of a sterile disposable handle. After an incubation time of 24 hours at 37°C, the bacterial colonies (cfu) were counted.

[9] = system: Enterococcus hirae ATCC 10541; experiment: as above; conditions: 2 hours at 37°C, transplant on agar
Experimental: as §1, with “0,08-0,13” for “0.08-0.13”, “10^6 cfu/ml” for “(10^6 cfu/ml)”
as §5, §6

[10] = system: Staphylococcus aureus ATCC 22953; experiment: as above; conditions: 2 hours at 37°C, transplant on agar
Experimental: as §1, with “0,08-0,13” for “0.08-0.13”, “10^6 cfu/ml” for “(10^6 cfu/ml)”
as §5, §6

Structure (SMILES): CC[C@H](C)[C@H](NC(=O)[C@H](CCCCN)NC(=O)[C@H](Cc1ccc(O)cc1)NC(=O)[C@H](CS)NC(=O)[C@H](CC(C)C)NC(=O)[C@H](CC(N)=O)NC(=O)[C@H](CCCCN)NC(=O)CNC(=O)[C@H](C)NC(=O)[C@@H]1CCCN1C(=O)[C@H](CS)NC(=O)[C@@H](NC(=O)[C@H](CCCCN)NC(=O)[C@H](CO)NC(=O)[C@H](C)NC(=O)[C@@H](NC(=O)[C@@H]1CCCN1C(=O)[C@@H](NC(=O)[C@H](CC(C)C)NC(=O)[C@@H](N)CCCCN)[C@@H](C)CC)[C@@H](C)CC)[C@@H](C)O)C(=O)O [NCP-0, K LIPIA SKT CPA GKN LCY KI] (H-KLIPIASKTCPAGKNLCYKI-OH; N-terminus and C-terminus assumed)
- damage to the inner membrane (ONPG) (E. coli ML-35pYC): had not demonstrated activity on outer or inner membrane
- damage to the outer membrane (CENTA) (E. coli ML-35pYC): had not demonstrated activity on outer or inner membrane
- Antimicrobial activity (% to control) ([1]; 10 mM NaCl, peptide 12.5 µg/ml): 0%
- Antimicrobial activity (% to control) ([1]; 10 mM NaCl, peptide 100 µg/ml): 2%
- Antimicrobial activity (% to control) ([1]; 125 mM NaCl, peptide 12.5 µg/ml): 0%
- Antimicrobial activity (% to control) ([1]; 125 mM NaCl, peptide 100 µg/ml): 0%
- Antimicrobial activity (% to control) ([1]; 250 mM NaCl, peptide 12.5 µg/ml): 0%
- Antimicrobial activity (% to control) ([1]; 250 mM NaCl, peptide 100 µg/ml): 0%
- LD90 [2]: 123.77 µg/ml and 57.3 µM
- LD99 [2]: 131.55 µg/ml and 61 µM
- LD90 [3]: > 100 µg/ml and > 46.3 µM
- LD99 [3]: > 200 µg/ml and > 92.6 µM
- LD90 [4]: 0.8 µg/ml and 0.4 µM
- LD99 [4]: 1.6 µg/ml and 0.7 µM
- LD90 [5]: > 100 µg/ml and > 46.3 µM
- LD99 [5]: > 200 µg/ml and > 92.6 µM
- LD90 [6]: > 100 µg/ml and > 46.3 µM
- LD99 [6]: > 200 µg/ml and > 92.6 µM
- LD90 [7]: 126.205 µg/ml and 58.4 µM
- LD99 [7]: 127,26 µg/ml and 59 µM
- LD90 [8]: 100 µg/ml and 46.3 µM
- LD99 [8]: > 100 µg/ml and > 46.3 µM
- LD90 [9]: > 100 µg/ml and > 46.3 µM
- LD99 [9]: > 200 µg/ml and > 92.6 µM
- LD90 [10]: > 100 µg/ml and > 46.3 µM
- LD99 [10]: > 200 µg/ml and > 92.6 µM
